# Structures can show the parent of a compound that is named as a salt.
# Molecular target: T1, human FXa (Homo sapiens, UniProt P00742)
# T1 construct: purchased Enzyme Research Labolatories, Inc
# Test: Determination of human FXa-inhibiting effect (IC50 value)
# Format: biochemical
# Settings: not given
# Source text: Determination of Human FXa-inhibiting Effect (IC50 Value)
# As a control, Tris buffer was used in place of the test compound.
# T1 sequence (P00742 235-488 limits assumed): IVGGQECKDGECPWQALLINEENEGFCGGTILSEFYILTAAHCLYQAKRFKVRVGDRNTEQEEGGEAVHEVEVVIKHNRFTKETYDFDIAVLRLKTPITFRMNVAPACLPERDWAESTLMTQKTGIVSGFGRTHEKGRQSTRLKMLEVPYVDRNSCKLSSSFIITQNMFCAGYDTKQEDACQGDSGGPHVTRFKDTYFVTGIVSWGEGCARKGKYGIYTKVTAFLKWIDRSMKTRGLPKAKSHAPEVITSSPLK
# T1 sequence (P00742 41-179 partner limits assumed): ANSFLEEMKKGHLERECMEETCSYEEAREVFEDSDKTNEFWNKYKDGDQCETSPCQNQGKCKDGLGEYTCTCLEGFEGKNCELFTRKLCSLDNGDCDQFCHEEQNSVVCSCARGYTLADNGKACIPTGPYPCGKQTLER
row,SMILES,IC50 [nM]
1,"CN1CCc2nc(C(=O)N[C@H]3CCC[C@@H]3NC(=O)c3cc4cc(Cl)ccc4[nH]3)sc2C1 (relative stereo) [Example 3, N-((1R*,2R*)-2-{[(5-Chloroindol-2-yl)carbonyl]amino}-cyclopentyl)-5-methyl-4,5,6,7-tetrahydrothiazolo[5,4-c]-pyridine-2-carboxamide hydrochloride]",86

# Same assay, conditions: human FXa, substrate S-2222, absorbance at 405 nm, room temperature; read-out: Human FXa-inhibiting effect (IC50)
row,SMILES,IC50 [nM]
1,"CN1CCc2nc(C(=O)N[C@@H]3CCCC[C@@H]3NC(=O)c3ccc4cc(Cl)ccc4c3)sc2C1 (relative stereo) [Example 7, N-{(1R*,2S*)-2-[(6-Chloronaphthoyl)amino]cyclohexyl}-5-methyl-4,5,6,7-tetrahydrothiazolo[5,4-c]pyridine-2-carboxamide hydrochloride]",83
2,"CN1CCc2nc(C(=O)N[C@@H]3CCCC[C@@H]3NC(=O)c3cc4cc(Br)ccc4[nH]3)sc2C1 (relative stereo) [Example 11, N-((1R*,2S*)-2-{[(5-Bromoindol-2-yl)carbonyl]amino}-cyclohexyl)-5-methyl-4,5,6,7-tetrahydrothiazolo[5,4-c]-pyridine-2-carboxamide hydrochloride]",92
3,"CN1CCc2nc(C(=O)N[C@@H]3C[C@@H](C(=O)N(C)C)CC[C@@H]3NC(=S)C(=O)Nc3ccc(Cl)cc3)sc2C1 [Ex. 246, N-{(1R,2S,5S)-2-{[2-(4-Chloroanilino)-2-oxoethane-thioyl]amino}-5-[(dimethylamino)carbonyl]cyclohexyl}-5-methyl-4,5,6,7-tetrahydrothiazolo[5,4-c]pyridine-2-carboxamide]",3.1
4,"CN1CCc2nc(C(=O)N[C@@H]3C[C@@H](C(=O)N(C)C)CC[C@@H]3NC(=S)C(=O)Nc3ccc(Cl)cn3)sc2C1 [Ex. 247, N-{(1R,2S,5S)-2-({2-[(5-Chloropyridin-2-yl)amino]-2-oxoethanethioyl}amino)-5-[(dimethylamino)carbonyl]-cyclohexyl}-5-methyl-4,5,6,7-tetrahydrothiazolo[5,4-c]-pyridine-2-carboxamide]",1.9
5,"CN1CCc2nc(C(=O)N[C@@H]3C[C@@H](C(=O)N(C)C)CC[C@@H]3NC(=O)C(=S)Nc3ccc(Cl)cn3)sc2C1 [Ex. 248, N-{(1R,2S,5S)-2-({2-[(5-Chloropyridin-2-yl)amino]-2-thioxoacetyl}amino)-5-[(dimethylamino)carbonyl]-cyclohexyl}-5-methyl-4,5,6,7-tetrahydrothiazolo[5,4-c]-pyridine-2-carboxamide]",5.4
6,"COC(=O)[C@@H]1CC[C@H](NC(=O)c2cc3cc(Cl)ccc3[nH]2)[C@H](NC(=O)c2nc3c(s2)CN(C)CC3)C1 [Example 54, Methyl (1R,3R,4S)-4-{[(5-chloroindol-2-yl)carbonyl]amino}-3-{[(5-methyl-4,5,6,7-tetrahydrothiazolo[5,4-c]pyridin-2-yl)carbonyl]amino}cyclohexanecarboxylate]",4.2
7,"CCNC(=O)[C@H]1CC[C@H](NC(=O)c2cc3cc(Cl)ccc3[nH]2)[C@H](NC(=O)c2nc3c(s2)CN(C)CC3)C1 [Example 62, N-{(1R,2S,5S)-2-{[(5-Chloroindol-2-yl)carbonyl]amino}-5-[(ethylamino)carbonyl]cyclohexyl}-5-methyl-4,5,6,7-tetrahydrothiazolo[5,4-c]pyridine-2-carboxamide hydrochloride]",3.5

# Second part, the molecule after the results:
row,IC50 [nM],SMILES
1,4.5,"CCOC(=O)N1CC[C@H](NC(=O)c2cc3cc(Cl)ccc3[nH]2)[C@H](NC(=O)c2nc3c(s2)CN(C)CC3)C1 (relative stereo) [Example 130, Ethyl (3R*,4S*)-4-{[(5-chloroindol-2-yl)carbonyl]amino}-3-{[(5-methyl-4,5,6,7-tetrahydrothiazolo[5,4-c]pyridin-2-yl)carbonyl]amino}piperidine-1-carboxylate hydrochloride]"
2,4.4,"CN1CCc2nc(C(=O)N[C@@H]3CN(C(=O)C4CC4)CC[C@@H]3NC(=O)c3cc4cc(Cl)ccc4[nH]3)sc2C1 (relative stereo) [Example 138, N-[(3R*,4S*)-4-{[(5-Chloroindol-2-yl)carbonyl]amino}-1-(cyclopropylcarbonyl)piperidin-3-yl]-5-methyl-4,5,6,7-tetrahydrothiazolo[5,4-c]pyridine-2-carboxamide hydrochloride]"
3,5.8,"COCC(=O)N1CC[C@H](NC(=O)c2cc3cc(Cl)ccc3[nH]2)[C@H](NC(=O)c2nc3c(s2)CN(C)CC3)C1 (relative stereo) [Example 143, N-[(3R*,4S*)-4-{[(5-Chloroindol-2-yl)carbonyl]amino}-1-(2-methoxyacetyl)piperidin-3-yl]-5-methyl-4,5,6,7-tetrahydro-thiazolo[5,4-c]pyridine-2-carboxamide hydrochloride]"
4,26,"CN1CCc2nc(C(=O)N[C@@H]3CN(S(=O)(=O)CC(=O)O)C[C@H]3NC(=O)c3cc4cc(Cl)ccc4[nH]3)sc2C1 [Example 101, 2-[((3R,4R)-3-{[(5-Chloroindol-2-yl)carbonyl]amino}-4-{[(5-methyl-4,5,6,7-tetrahydrothiazolo[5,4-c]pyridin-2-yl)carbonyl]amino}pyrrolidin-1-yl)sulfonyl]acetic acid]"

# System: not given
# Test: not given
# Settings: not given
row,SMILES,melting point
1,"CN1CCc2nc(C(=O)N[C@@H]3CS(=O)(=O)CC[C@H]3NC(=O)c3cc4cc(F)ccc4[nH]3)sc2C1 (relative stereo) (as salt: hydrochloride) [Example 182, N-((3R*,4S*)-4-{[(5-Fluoroindol-2-yl)carbonyl]amino}-1,1-dioxohexahydro-1-thiopyran-3-yl)-5-methyl-4,5,6,7-tetrahydrothiazolo[5,4-c]pyridine-2-carboxamide hydrochloride]",236 to 241 °C
2,"CN1CCc2nc(C(=O)N[C@@H]3CCS(=O)(=O)C[C@@H]3NC(=O)c3cc4cc(F)ccc4[nH]3)sc2C1 (relative stereo) (as salt: hydrochloride) [Example 183, N-((3R*,4R*)-3-{[(5-Fluoroindol-2-yl)carbonyl]amino}-1,1-dioxohexahydro-1-thiopyran-4-yl)-5-methyl-4,5,6,7-tetrahydrothiazolo[5,4-c]pyridine-2-carboxamide hydrochloride]",244 to 249 °C
3,"COCC(C)(C)C(=O)N1CC[C@H](NC(=O)c2cc3cc(Cl)ccc3[nH]2)[C@H](NC(=O)c2nc3c(s2)CN(C)CC3)C1 (relative stereo) [Example 147, N-[(3R*,4S*)-4-{[(5-chloroindol-2-yl)carbonyl]amino}-1-(3-methoxy-2,2-dimethylpropanoyl)piperidin-3-yl)-5-methyl-4,5,6,7-tetrahydrothiazolo[5,4-c]pyridine-2-carboxamide]",240 °C (dec.)

# Now from value to molecule:
row,melting point,SMILES
1,242 to 247 °C,"CN1CCc2nc(C(=O)N[C@@H]3CCS(=O)(=O)C[C@@H]3NC(=O)c3cc4cc(Cl)ccc4[nH]3)sc2C1 (relative stereo) (as salt: hydrochloride) [Example 180, N-((3R*,4R*)-3-{[(5-Chloroindol-2-yl)carbonyl]amino}-1,1-dioxohexahydro-1-thiopyran-4-yl)-5-methyl-4,5,6,7-tetrahydrothiazolo[5,4-c]pyridine-2-carboxamide hydrochloride]"
2,244 to 249 °C,"CN1CCc2nc(C(=O)N[C@@H]3CS(=O)(=O)CC[C@H]3NC(=O)c3cc4cc(Cl)ccc4[nH]3)sc2C1 (relative stereo) (as salt: hydrochloride) [Example 181, N-((3R*,4S*)-4-{[(5-Chloroindol-2-yl)carbonyl]amino}-1,1-dioxohexahydro-1-thiopyran-3-yl)-5-methyl-4,5,6,7-tetrahydrothiazolo[5,4-c]pyridine-2-carboxamide hydrochloride]"
3,187 to 189 °C (dec.),"CN1CCc2nc(C(=O)N[C@@H]3CCN(C(=O)OC(C)(C)C)C[C@@H]3NC(=O)c3cc4cc(Cl)ccc4[nH]3)sc2C1 (relative stereo) [Example 119, tert-Butyl (3R*,4S*)-3-{[(5-chloroindol-2-yl)carbonyl]-amino}-4-{[(5-methyl-4,5,6,7-tetrahydrothiazolo[5,4-c]-pyridin-2-yl)carbonyl]amino}piperidine-1-carboxylate]"
4,220 °C (dec.),"CN1CCc2nc(C(=O)N[C@@H]3CN(C(=O)C(C)(C)CO)CC[C@@H]3NC(=O)c3cc4cc(Cl)ccc4[nH]3)sc2C1 (relative stereo) [Example 146, N-[(3R*,4S*)-4-{[(5-chloroindol-2-yl)carbonyl]amino}-1-(3-hydroxy-2,2-dimethylpropanoyl)piperidin-3-yl)-5-methyl-4,5,6,7-tetrahydrothiazolo[5,4-c]pyridine-2-carboxamide]"
5,190 °C (dec.),"CC(=O)OC(C)(C)C(=O)N1CC[C@H](NC(=O)c2cc3cc(Cl)ccc3[nH]2)[C@H](NC(=O)c2nc3c(s2)CN(C)CC3)C1 (relative stereo) [Example 148, 2-((3R*,4S*)-4-{[(5-Chloroindol-2-yl)carbonyl]amino}-3-{[(5-methyl-4,5,6,7-tetrahydrothiazolo[5,4-c]pyridin-2-yl)carbonyl]amino}piperidin-1-yl)-1,1-dimethyl-2-oxoethyl acetate]"
6,190 °C (dec.),"CN1CCc2nc(C(=O)N[C@@H]3CN(C(=O)C(C)(C)O)CC[C@@H]3NC(=O)c3cc4cc(Cl)ccc4[nH]3)sc2C1 (relative stereo) [Example 149, N-[(3R*,4S*)-4-{[(5-Chloroindol-2-yl)carbonyl]amino}-1-(2-hydroxy-2-methylpropanoyl)piperidin-3-yl]-5-methyl-4,5,6,7-tetrahydrothiazolo[5,4-c]pyridine-2-carboxamide]"
7,190 to 192 °C,"CN1CCc2nc(C(=O)N[C@@H]3CN(C(=O)OC(C)(C)C)C[C@H]3NC(=O)c3cc4cc(Cl)ccc4[nH]3)sc2C1 [Example 94, tert-Butyl (3R,4R)-3-{[(5-chloroindol-2-yl)carbonyl]-amino}-4-{[(5-methyl-4,5,6,7-tetrahydrothiazolo[5,4-c]-pyridin-2-yl)carbonyl]amino}pyrrolidine-1-carboxylate]"
